# Laboratory results taken from patent US9949479B2 (priority 2015, dated 2018).
# Where “and” joins values, the source holds several entries; their conditions need not be identical. Equal entries are not always repeated. Where two headings read alike, the source gives them in different places.
# How the values were obtained:
# Fusarium asiaticum = assay: microbe, parasite or virus in culture; type: cell-based
# leaf rust fungus = type: in vivo; conditions: seed treatment; dose as in E133
# [1] = parameters: species or system wheat; conditions: in vivo
# rust [2] = type: in vivo
# wheat scab [3] = type: in vivo, Fusarium spp.
# [4] = type: in vivo, wheat
# [5] = parameters: species or system wheat; conditions: in vivo; remark: listed apart in the source
# powdery mildew [6] = type: in vivo
# [7] = test system: DON toxin biosynthesis of carbendazim-resistant fusarium asiaticum; assay: microbe, parasite or virus in culture; type: cell-based
# rust [8] = type: in vivo; conditions: dose as in E145
# powdery mildew [9] = type: in vivo; remark: listed apart in the source
# rust [10] = type: in vivo; remark: listed apart in the source
# wheat scab [11] = type: in vivo, Fusarium spp.; conditions: Serial 6: preparation 100 g/mu; jinggangmycin 0, metconazole 20 g ai./mu
# wheat scab [12] = type: in vivo, Fusarium spp.; remark: listed apart in the source
# powdery mildew [13] = type: in vivo; remark: listed apart in the source
# [14] = type: in vivo, barley; conditions: dose as in E154
# powdery mildew [15] = type: in vivo; conditions: dose as in E154
# leaf blight [16] = type: in vivo
# powdery mildew [17] = type: in vivo; conditions: Serial 6: preparation 100 g/mu; jinggangmycin 0, metconazole 20 g ai./mu
# wheat scab [18] = type: in vivo, Fusarium spp.; conditions: Serial 6: preparation 100; jinggangmycin 0, metconazole 20 g ai./mu
# rust [19] = type: in vivo; conditions: dose as in E154
# [20] = parameters: species or system wheat; conditions: in vivo; remark: listed apart in the source
# rust [21] = type: in vivo; conditions: Serial 6: preparation 100; jinggangmycin 0, metconazole 20 g ai./mu
# Fusarium graminearum = assay: microbe, parasite or virus in culture; type: cell-based
# powdery mildew [22] = type: in vivo; conditions: dose as in E145
# leaf blight [23] = type: in vivo; conditions: Serial 6: preparation 100; jinggangmycin 0, metconazole 20 g ai./mu
# wheat scab [24] = type: in vivo, Fusarium spp.; remark: listed apart in the source
# powdery mildew [25] = type: in vivo; conditions: Serial 6: preparation 100; jinggangmycin 0, metconazole 20 g ai./mu
# powdery mildew [26] = type: in vivo; remark: listed apart in the source
# leaf blight [27] = type: in vivo; conditions: dose as in E154
# leaf blight [28] = type: in vivo; conditions: Serial 6: preparation 100 g/mu; jinggangmycin 0, metconazole 20 g ai./mu
# [29] = Fusarium asiaticum, read-out: Growth Inhibition Rate F.a
# [30] = Serial 9: preparation 100 g/mu, metconazole 20 g ai./mu alone
# [31] = Serial 10: preparation 80 g/mu, metconazole 16 g ai./mu alone
# [32] = Serial 11: preparation 40 g/mu, metconazole 8 g ai./mu alone
# [33] = Serial 12: preparation 20 g/mu, metconazole 4 g ai./mu alone
# [34] = Serial 8: preparation 50 g/mu, metconazole 10 g ai./mu alone
# [35] = Serial 10: preparation 15 g/mu, metconazole 3 g ai./mu alone
# [36] = Serial 9: preparation 37.5 g/mu, metconazole 7.5 g ai./mu alone
# [37] = Serial 10: preparation 30 g/mu, metconazole 6 g ai./mu alone
# [38] = Serial 11: preparation 22.5 g/mu, metconazole 4.5 g ai./mu alone
# [39] = Serial 12: preparation 15 g/mu, metconazole 3 g ai./mu alone
# [40] = Serial 21: metconazole 20 g ai./mu alone
# [41] = Serial 22: metconazole 18 g ai./mu alone
# [42] = Serial 23: metconazole 16 g ai./mu alone
# [43] = Serial 24: metconazole 10 g ai./mu alone
# [44] = Serial 25: metconazole 9 g ai./mu alone
# [45] = Serial 26: metconazole 8 g ai./mu alone
# [46] = Serial 27: metconazole 6 g ai./mu alone
# [47] = Serial 28: metconazole 3 g ai./mu alone
# [48] = Fusarium graminearum, read-out: Growth Inhibition Rate F.g
structure (smiles),measurement,setting,value
CC1(C)CCC(Cc2ccc(Cl)cc2)C1(O)Cn1cncn1 (centres unmarked) [Metconazole],ED50,Fusarium asiaticum,0.114 µg/mL and 0.112 µg/mL and 0.116 µg/mL
same,inhibition at 0.0625 µg/mL,Fusarium asiaticum; [29],30.7%
same,inhibition at 0.125 µg/mL,Fusarium asiaticum; [29],58.6%
same,inhibition at 0.25 µg/mL,Fusarium asiaticum; [29],75.6%
same,inhibition at 0.5 µg/mL,Fusarium asiaticum; [29],89.2%
same,inhibition at 1 µg/mL,Fusarium asiaticum; [29],95.9%
same,Incidence Prevention Effect % Rust,leaf rust fungus,85.5% and 82.0% and 71.0% and 54.5%
same,Thousand Kernel Weight,[1],43.4 g and 42.8 g and 42.4 g and 40.4 g
same,Disease Index Prevention Effect % Rust,rust [2]; [30],84.4%
same,Disease Index Prevention Effect % Rust,rust [2]; [31],77.3%
same,Disease Index Prevention Effect % Rust,rust [2]; [32],70.6%
same,Disease Index Prevention Effect % Rust,rust [2]; [33],63.8%
same,Disease Index Prevention Effect % Head Blight,wheat scab [3]; [34],75.6%
same,Disease Index Prevention Effect % Head Blight,wheat scab [3]; [35],39.1%
same,Grain Toxin Content mg of DON/kg of grain,[4]; [36],2.01 mg of DON/kg of grain
same,Toxin Reduction Percentage %,[4]; [36],55.5%
same,Grain Toxin Content mg of DON/kg of grain,[4]; [37],2.17 mg of DON/kg of grain
same,Toxin Reduction Percentage %,[4]; [37],52.0%
same,Grain Toxin Content mg of DON/kg of grain,[4]; [38],2.06 mg of DON/kg of grain
same,Toxin Reduction Percentage %,[4]; [38],54.4%
same,Grain Toxin Content mg of DON/kg of grain,[4]; [39],3.12 mg of DON/kg of grain
same,Toxin Reduction Percentage %,[4]; [39],31.0%
same,Thousand Kernel Weight,[5],42.8 g and 41.8 g and 42.0 g and 39.2 g
same,Disease Index Prevention Effect % Powdery Mildew,powdery mildew [6]; [37],60.6%
same,Disease Index Prevention Effect % Powdery Mildew,powdery mildew [6]; [38],58.6%
same,Disease Index Prevention Effect % Powdery Mildew,powdery mildew [6]; [39],45.1%
same,DON Biosynthesis Inhibition Rate,[7],0.66% and −0.34%
same,Toxin Production Capability,[7],87.42 μgDON/g by dry weight of hyphae and 52.50 μgDON/g by dry weight of hyphae
same,Disease Index Prevention Effect % Rust,rust [8],83.8% and 78.4% and 66.7% and 41.9%
same,Disease Index Prevention Effect % Powdery Mildew,powdery mildew [9]; [30],83.2%
same,Disease Index Prevention Effect % Powdery Mildew,powdery mildew [9]; [31],75.4%
same,Disease Index Prevention Effect % Powdery Mildew,powdery mildew [9]; [32],69.2%
same,Disease Index Prevention Effect % Powdery Mildew,powdery mildew [9]; [33],60.6%
same,Disease Index Prevention Effect % Rust,rust [10]; [40],91.2%
same,Disease Index Prevention Effect % Rust,rust [10]; [41],88.4%
same,Disease Index Prevention Effect % Rust,rust [10]; [42],85.6%
same,Disease Index Prevention Effect % Rust,rust [10]; [43],82.1%
same,Disease Index Prevention Effect % Rust,rust [10]; [44],82.4%
same,Disease Index Prevention Effect % Rust,rust [10]; [45],79.4%
same,Disease Index Prevention Effect % Rust,rust [10]; [46],72.6%
same,Disease Index Prevention Effect % Rust,rust [10]; [47],30.2%
same,Disease Index Prevention Effect % Head Blight,wheat scab [11],83.4%
same,Disease Index Prevention Effect % Head Blight,wheat scab [12]; [37],52.3%
same,Disease Index Prevention Effect % Head Blight,wheat scab [12]; [38],49.6%
same,Disease Index Prevention Effect % Head Blight,wheat scab [12]; [39],28.6%
same,Disease Index Prevention Effect % Powdery Mildew,powdery mildew [13]; [40],80.1%
same,Disease Index Prevention Effect % Powdery Mildew,powdery mildew [13]; [41],74.6%
same,Disease Index Prevention Effect % Powdery Mildew,powdery mildew [13]; [42],71.4%
same,Disease Index Prevention Effect % Powdery Mildew,powdery mildew [13]; [43],63.4%
same,Disease Index Prevention Effect % Powdery Mildew,powdery mildew [13]; [44],60.8%
same,Disease Index Prevention Effect % Powdery Mildew,powdery mildew [13]; [45],58.6%
same,Disease Index Prevention Effect % Powdery Mildew,powdery mildew [13]; [46],51.8%
same,Disease Index Prevention Effect % Powdery Mildew,powdery mildew [13]; [47],26.4%
same,Grain Toxin Content,[14],3.86 mg of DON/Kg of grain and 3.70 mg of DON/Kg of grain and 3.09 mg of DON/Kg of grain and 3.26 mg of DON/Kg of grain
same,Toxin Reduction Percentage %,[14]; vs control,54.7% and 56.6% and 63.8% and 61.8%
same,Disease Index Prevention Effect % Powdery Mildew,powdery mildew [15],52.6% and 65.3% and 71.8% and 82.2%
same,Disease Index Prevention Effect % Leaf Blight,leaf blight [16]; [34],72.8%
same,Disease Index Prevention Effect % Leaf Blight,leaf blight [16]; [36],70.6%
same,Disease Index Prevention Effect % Leaf Blight,leaf blight [16]; [35],68.3%
same,Disease Index Prevention Effect % Powdery Mildew,powdery mildew [17],98.2%
same,Disease Index Prevention Effect % Head Blight,wheat scab [18],82.4%
same,Disease Index Prevention Effect % Rust,rust [19],63.0% and 68.2% and 76.1% and 88.2%
same,Thousand Kernel Weight,[20],43.2 g and 42.6 g and 39.8 g
same,Disease Index Prevention Effect % Rust,rust [21],85.0%
same,ED50,Fusarium graminearum; F.g sensitive strains,0.117 µg/mL
same,inhibition at 0.0625 µg/mL,Fusarium graminearum; [48],30.7%
same,inhibition at 0.125 µg/mL,Fusarium graminearum; [48],58.5%
same,inhibition at 0.25 µg/mL,Fusarium graminearum; [48],75.7%
same,inhibition at 0.5 µg/mL,Fusarium graminearum; [48],89.1%
same,inhibition at 1 µg/mL,Fusarium graminearum; [48],96%
same,inhibition at 0.1 µg/mL,"Fusarium graminearum; Fusarium graminearum, read-out: inhibition rate on the hyphal growth of the head blight fungi",~50%
same,Average Fungal Colony Diameter F.g,"Fusarium graminearum; Metconazole 0.0625 μg/mL, sensitive strains",52.1 mm
same,Average Fungal Colony Diameter F.g,"Fusarium graminearum; Metconazole 0.125 μg/mL, sensitive strains",31.2 mm
same,Average Fungal Colony Diameter F.g,"Fusarium graminearum; Metconazole 0.25 μg/mL, sensitive strains",18.3 mm
same,Average Fungal Colony Diameter F.g,"Fusarium graminearum; Metconazole 0.5 μg/mL, sensitive strains",8.2 mm
same,Average Fungal Colony Diameter F.g,"Fusarium graminearum; Metconazole 1.0 μg/mL, sensitive strains",3.0 mm
same,activity of metconazole relative to carbendazim (ED50),Fusarium graminearum; sensitive strains,about four times
same,activity of metconazole relative to phenamacril (ED50),Fusarium graminearum; sensitive strains,about 1.5 times
same,Disease Index Prevention Effect % Powdery Mildew,powdery mildew [22],78.7% and 74.3% and 70.2% and 48.6%
same,Disease Index Prevention Effect % Leaf Blight,leaf blight [23],80.6%
same,Disease Index Prevention Effect % Head Blight,wheat scab [24]; [30],78.2%
same,Disease Index Prevention Effect % Head Blight,wheat scab [24]; [31],71.2%
same,Disease Index Prevention Effect % Head Blight,wheat scab [24]; [32],67.1%
same,Disease Index Prevention Effect % Head Blight,wheat scab [24]; [33],52.0%
same,Disease Index Prevention Effect % Powdery Mildew,powdery mildew [25],78.2%
same,Disease Index Prevention Effect % Powdery Mildew,powdery mildew [26]; [34],83.2%
same,Disease Index Prevention Effect % Powdery Mildew,powdery mildew [26]; [35],69.2%
same,Disease Index Prevention Effect % Leaf Blight,leaf blight [27],56.2% and 70.4% and 73.7% and 80.0%
same,Disease Index Prevention Effect % Leaf Blight,leaf blight [28],84.6%
